According to US20160231319A1, “METHOD OF ENHANCING HEMATOPOIETIC CELL TRANSPLANTATION” (Verve, Ltd., priority 2014, published 2016):

Key:
[1] = tested on: UCB HSC; details: pulse incubation of UCB cells; clinical trial; cited from earlier work
[2] = tested on: phospho-GSK-3β in CD34+ cells from UCB; assay: UCB mononuclear cells treated with PGE2; phospho-GSK-3β expression in CD34+ cells by high-resolution flow cytometry; type: cell-based; details: UCB treated with reagent vehicle (DMSO) versus PGE2
Excerpt: Using our high-resolution flow cytometric technology, we have studied HSC for measures of potency. Our conception has been that expression levels of molecules shown to be important for hematopoiesis in experimental studies may have utility in assessing the potency of HSC in terms of engraftment after transplantation.
In order to assess molecular expression level correlates of potency in UCB HSC, we treated UCB mononuclear cells with PGE2 and assessed the expression of […].
This is consistent with our previous finding that phospho-GSK-3β is a potency biomarker.

SMILES: CCCCC[C@H](O)/C=C/[C@H]1[C@H](O)CC(=O)[C@@H]1C/C=C\CCCC(=O)O [PGE2, Prostaglandin E2]
- potency of the HSC in terms of engraftment [1]: enhances the potency of the HSC in terms of engraftment
- expression of phospho-GSK-3β in CD34+ cells [2]: able to detect differences in expression of phospho-GSK-3β
